# Test system: NKI2 TCR-transduced peripheral blood lymphocytes
# Assay: IFNγ production by NKI2-transduced lymphocytes with peptide-loaded JY cells
# Assay type: cell-based, human
# Conditions: NKI2 transduced T cells
sequence,measurement,value
ALDSRSEHFM,potency of stimulation relative to CDK4 neoantigen ALDPHSGHFV,as potently as the CDK4 neoantigen

# — publication PMC5786495 (Cell, 2017)
